From ChEMBL document CHEMBL3259748, “Synthesis, characterization, and PK/PD studies of a series of spirocyclic pyranochromene BACE1 inhibitors” (Bioorg Med Chem Lett, 2014)

Key:
MDR1 (human) = assay: Apparent permeability of the compound across pig LLC-PK1 cells expressing human MDR1; type: ADME, cell-based, Sus scrofa
[1] = Clearance in human liver microsomes at 1 uM after 20 mins in presence of NADPH; type: ADME

Row | Structure (SMILES) | Papp (MDR1 (human)) [×10⁻⁶ cm/s] | CLhep predicted at 1 µM [1] [mL/min/kg]
1 | NC1=N[C@@]2(CO1)c1cc(-c3cccnc3F)ccc1O[C@@H]1COCC[C@H]12 | 10 | 6
2 | N#Cc1cccc(-c2ccc3c(c2)[C@@]2(COC(N)=N2)[C@@H]2CCOC[C@H]2O3)c1 | 11 | 8
3 | C[C@]12COCC[C@@H]1[C@]1(COC(N)=N1)c1cc(-c3cncc(Cl)c3)ccc1O2 (racemic) | 10 | 15

The remaining lines, values ahead:

Row | Papp (MDR1 (human)) [×10⁻⁶ cm/s] | CLhep predicted at 1 µM [1] [mL/min/kg] | Structure (SMILES)
4 | 14 | 13 | NC1=N[C@@]2(CO1)c1cc(-c3cncc(Cl)c3)ccc1O[C@@H]1COCC[C@H]12
5 | 15 | 9 | NC1=N[C@@]2(CO1)c1cc(-c3cncc(F)c3)ccc1O[C@@H]1COCC[C@H]12
6 | 11 | 10 | NC1=N[C@@]2(CO1)c1cc(-c3cc(F)cc(Cl)c3)ccc1O[C@@H]1COCC[C@H]12
7 | 4.7 | 15 | NC1=N[C@@]2(CO1)c1cc(-c3cncc(Cl)c3)ccc1O[C@H]1COCC[C@@H]12
